In patent US20150175666A1, “PEPTIDES DERIVED FROM HIV GP41 FOR TREATING T-CELL MEDIATED PATHOLOGIES” (Yeda Research and Development Co. Ltd., priority 2012, published 2015):

Tests used:
[1] = In vivo toxicity in naïve mice; parameters: species or system C57BL mice; conditions: 50 mg/kg i.v., n=3
Method: First, the toxicity of the peptide was investigated by injecting naïve C57BL mice i.v. with 50 mg/kg of the peptides. […] Then, C57Bl/6J mice that were induced to develop clinical EAE by immunization with MOG35-55/CFA were given a dose of the peptide that was 100-fold less than the one examined in the toxicity assay, i.e. 10 μg per mouse (0.5 mg/kg), or PBS as a control. On day 10 post immunization, prior to the onset of clinical signs of EAE, the lymph node cells (LNCs) from each treatment group were cultured for 72 h in microtiter wells in triplicate (0.5×10^6/well) in the absence or presence of MOG35-55 (2.5 or 5 μg/ml; SEQ ID NO: 15). [H3] Thymidine was added for the last 18 h. The LNCs were analyzed ex vivo for their recall proliferative response to the immunizing MOG35-55 peptide and for secretion of pro-inflammatory cytokines.

[2] = tested on: T cells (Jurkat T cells, MOG35-55-specific T cells); test: XTT cytotoxicity assay; format: cell-based, human and murine; conditions: up to maximal concentration examined (20 μM, FIG. 3G)
Method: Aliquots of 2.5×10^4 of the cells (from Jurkat E6-1, T-cell line) were distributed onto a 96-well plate (Falcon) in the presence of various peptide concentrations and incubated for 24 h. Wells in the last two columns served as blank (medium only), and 100% survival controls (cells and medium only), respectively. After incubation, the XTT reaction solution benzene sulfonic acid hydrate and N-methyl dibenzopyrazine methyl sulfate, mixed in a proportion of 50:1, was added for 2 more hr. Optical density was read at a 450-nm wavelength in an enzyme-linked immunoabsorbent assay plate reader. LC50 (the concentration at which 50% of the cells die) was determined relative to the control, 2.5×10^4 cells in medium. All assays were performed in duplicate.
The viability of the cells was analyzed by an XTT cytotoxicity assay. The peptide was not toxic to T cells up to 20-fold more than the IC50 of the peptide, the maximal concentration examined (FIG. 3G).

[3] = tested on: human red blood cells (RBCs); test: Hemolysis of human red blood cells; format: cell-based; conditions: up to 100-fold IC50, maximal concentration examined (100 μM, 1 hr)
Method: Fresh human red blood cells (RBCs) were rinsed two times with PBS, followed by centrifugation for 7 min at 2000 rpm and resuspension in PBS. Peptides, at various concentrations, were dissolved in PBS and added to 50 μl of the stock hemolysis of human red blood cell (hRBC) solution in PBS for a final volume of 100 μl (final erythrocyte concentration, 4% (v/v)). The resulting suspension was incubated with agitation for 60 min at 37° C. The samples were then centrifuged at 2000 rpm for 7 min. The release of hemoglobin was monitored by measuring the absorbance of the supernatant at 540 nm. Controls for zero hemolysis (blank) and 100% hemolysis consisted of hRBCs suspended in PBS and PBS with 1% Triton, respectively.
Hemolysis of red blood cells (RBCs) is often used to detect membranolytic activity of peptides. Hemolytic activity was measured by the release of hemoglobin into the media (OD 540 nm). Triton (1% v/v) served as a control for a hemolytic agent. Importantly, the peptide was not hemolytic up to 100-fold more than the IC50 of the peptide, the maximal concentration examined (FIG. 3H).

Compound: CC[C@H](C)[C@H](NC(=O)[C@H](CCC(N)=O)NC(=O)[C@H](CCC(=O)O)NC(=O)[C@H](CC(C)C)NC(=O)[C@H](CO)NC(=O)[C@H](CCCCN)NC(=O)[C@H](CC(N)=O)NC(=O)[C@@H](N)CO)C(=O)N[C@@H](Cc1c[nH]c2ccccc12)C(=O)N[C@@H](CC(N)=O)C(=O)N[C@@H](Cc1c[nH]cn1)C(=O)N[C@H](C(=O)N[C@H](C(=O)N[C@@H](Cc1c[nH]c2ccccc12)C(=O)N[C@@H](CCSC)C(=O)N[C@@H](CCC(=O)O)C(=O)N[C@@H](Cc1c[nH]c2ccccc12)C(=O)N[C@@H](CC(=O)O)C(N)=O)[C@@H](C)O)[C@@H](C)O [PEP 6, SNKSLEQIWNHTTWMEWD]
- toxic effect in mice [1]: No toxic effect
- toxicity to T cells (viability) [2]: not toxic
- hemolytic activity [3]: not hemolytic
